# Assay results reported in PubChem BioAssay AID1963854 (Molecular Pharmacology Branch, DTP, NCI, 2024).
# Test system: 186277-243-T-J2-PDC complex spheroid viability
# Assay: Anticancer human tumor 186277-243-T-J2-PDC patient-derived colon adenocarcinoma cell line growth inhibition [POLQ]
# Settings: for IC50: curve of first compound; for viability, T/C: stronger effect = lower value
# Method in brief: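 Growth inhibition in 3D: complex spheroids (tumor PDC, HUVEC, MSC) treated with POLQ inhibitor combinations; where Cmax unknown, highest tested concentration 10 microM, except SN-38 at 1 microM.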
# [1] = second compound 0.0316 µM, first compound 0.0316 µM
# [2] = second compound 0.0316 µM, first compound 0.1 µM
# [3] = second compound 0.0316 µM, first compound 0.316 µM
# [4] = second compound 0.0316 µM, first compound 1 µM
# [5] = second compound 0.0316 µM, first compound 3.16 µM
# [6] = second compound 0.0316 µM, first compound 10 µM
# [7] = second compound 0.1 µM, first compound 0.0316 µM
# [8] = second compound 0.1 µM, first compound 0.1 µM
# [9] = second compound 0.1 µM, first compound 0.316 µM
# [10] = second compound 0.1 µM, first compound 1 µM
# [11] = second compound 0.1 µM, first compound 3.16 µM
# [12] = second compound 0.1 µM, first compound 10 µM
# [13] = second compound 0.316 µM, first compound 0.0316 µM
# [14] = second compound 0.316 µM, first compound 0.1 µM
# [15] = second compound 0.316 µM, first compound 0.316 µM
# [16] = second compound 0.316 µM, first compound 1 µM
# [17] = second compound 0.316 µM, first compound 3.16 µM
# [18] = second compound 0.316 µM, first compound 10 µM
# [19] = second compound 1 µM, first compound 0.0316 µM
# [20] = second compound 1 µM, first compound 0.1 µM
# [21] = second compound 1 µM, first compound 0.316 µM
# [22] = second compound 1 µM, first compound 1 µM
# [23] = second compound 1 µM, first compound 3.16 µM
# [24] = second compound 1 µM, first compound 10 µM
# [25] = second compound 3.16 µM, first compound 0.0316 µM
# [26] = second compound 3.16 µM, first compound 0.1 µM
# [27] = second compound 3.16 µM, first compound 0.316 µM
# [28] = second compound 3.16 µM, first compound 1 µM
# [29] = second compound 3.16 µM, first compound 3.16 µM
# [30] = second compound 3.16 µM, first compound 10 µM
# [31] = second compound 10 µM, first compound 0.0316 µM
# [32] = second compound 10 µM, first compound 0.1 µM
# [33] = second compound 10 µM, first compound 0.316 µM
# [34] = second compound 10 µM, first compound 1 µM
# [35] = second compound 10 µM, first compound 3.16 µM
# [36] = second compound 10 µM, first compound 10 µM
# 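Also: spheroids exposed to compounds for seven days.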
# 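For viability, T/C in this document: 100% = DMSO vehicle control viability.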
smiles,measurement,setting,value
Nc1ccn(C2OC(CO)C(O)C2(F)F)c(=O)n1 (centres undefined) + Nc1ccc(C#CCN(C(=O)Cc2ncc(C(F)(F)F)cc2C(F)(F)F)c2ccc(F)cc2)nn1,IC50,second compound 0.0316 µM,< 0.0316 µM
same,IC50,second compound 0.1 µM,< 0.0316 µM
same,IC50,second compound 0.316 µM,< 0.0316 µM
same,IC50,second compound 1 µM,< 0.0316 µM
same,IC50,second compound 3.16 µM,< 0.0316 µM
same,IC50,second compound 10 µM,< 0.0316 µM
same,"viability, T/C",[1],14.7%
same,"viability, T/C",[2],11.5%
same,"viability, T/C",[3],11.6%
same,"viability, T/C",[4],14%
same,"viability, T/C",[5],14%
same,"viability, T/C",[6],13.6%
same,"viability, T/C",[7],13.9%
same,"viability, T/C",[8],12.2%
same,"viability, T/C",[9],12.4%
same,"viability, T/C",[10],13.2%
same,"viability, T/C",[11],15%
same,"viability, T/C",[12],13.8%
same,"viability, T/C",[13],14.4%
same,"viability, T/C",[14],12.9%
same,"viability, T/C",[15],12.7%
same,"viability, T/C",[16],13.4%
same,"viability, T/C",[17],14.1%
same,"viability, T/C",[18],15.2%
same,"viability, T/C",[19],12.8%
same,"viability, T/C",[20],12%
same,"viability, T/C",[21],11.7%
same,"viability, T/C",[22],13%
same,"viability, T/C",[23],14.8%
same,"viability, T/C",[24],14.3%
same,"viability, T/C",[25],13%
same,"viability, T/C",[26],13.9%
same,"viability, T/C",[27],10.6%
same,"viability, T/C",[28],11.9%
same,"viability, T/C",[29],15.2%
same,"viability, T/C",[30],15.3%
same,"viability, T/C",[31],12.5%
same,"viability, T/C",[32],11.3%
same,"viability, T/C",[33],11.5%
same,"viability, T/C",[34],11.5%
same,"viability, T/C",[35],12.9%
same,"viability, T/C",[36],13.9%
COc1cc2cc(C(=O)CCC(=O)O)sc2cc1OC + Cc1cccc(N(C)C(=O)C2C(O)CCN2c2nc(C)cc(C(F)(F)F)c2C#N)c1,IC50,second compound 0.0316 µM,> 10 µM
same,IC50,second compound 0.1 µM,> 10 µM
same,IC50,second compound 0.316 µM,> 10 µM
same,IC50,second compound 1 µM,> 10 µM
same,IC50,second compound 3.16 µM,> 10 µM
same,IC50,second compound 10 µM,> 10 µM
same,"viability, T/C",[1],97.6%
same,"viability, T/C",[2],87.7%
same,"viability, T/C",[3],95%
same,"viability, T/C",[4],82.1%
same,"viability, T/C",[5],111%
same,"viability, T/C",[6],91.6%
same,"viability, T/C",[7],88.8%
same,"viability, T/C",[8],89.1%
same,"viability, T/C",[9],90.5%
same,"viability, T/C",[10],99.7%
same,"viability, T/C",[11],105%
same,"viability, T/C",[12],99.2%
same,"viability, T/C",[13],101%
same,"viability, T/C",[14],91.7%
same,"viability, T/C",[15],96.6%
same,"viability, T/C",[16],98.1%
same,"viability, T/C",[17],93.5%
same,"viability, T/C",[18],103%
same,"viability, T/C",[19],93.2%
same,"viability, T/C",[20],93.5%
same,"viability, T/C",[21],102%
same,"viability, T/C",[22],109%
same,"viability, T/C",[23],101%
same,"viability, T/C",[24],113%
same,"viability, T/C",[25],106%
same,"viability, T/C",[26],112%
same,"viability, T/C",[27],92.4%
same,"viability, T/C",[28],99.4%
same,"viability, T/C",[29],118%
same,"viability, T/C",[30],91.7%
same,"viability, T/C",[31],107%
same,"viability, T/C",[32],109%
same,"viability, T/C",[33],112%
same,"viability, T/C",[34],101%
same,"viability, T/C",[35],93.9%
same,"viability, T/C",[36],84.4%
